Experimental data reported in ChEMBL document CHEMBL1143906, “TIE-2/VEGF-R2 SAR and in vitro activity of C3-acyl dihydroindazolo[5,4-a]pyrrolo[3,4-c]carbazole analogs” (Bioorg Med Chem Lett, 2008).

Columns and labels:
[1] = biological target: T1, Angiopoietin-1 receptor (Homo sapiens, UniProt Q02763); assay: Inhibition of TIE2
[2] = biological target: Vascular endothelial growth factor receptor 2 (Homo sapiens, UniProt P35968); assay: Inhibition of VEGFR2
[3] = biological target: T1, Angiopoietin-1 receptor; assay: Inhibition of TIE2 at 300 nM
[4] = test system: HUVEC; assay: Cytotoxicity against human HUVEC cells; assay type: cell-based
[5] = Bioavailability in rat at 5 mg/kg, po; assay type: ADME, organism-based; settings: in vivo
[6] = AUC (0 to infinity) in rat at 5 mg/kg, po; assay type: ADME, organism-based; parameters: time infinity, dose 5 mg/kg, route oral; settings: plasma
[7] = AUC (0 to infinity) in rat at 1 mg/kg, iv; assay type: ADME, organism-based; parameters: time infinity, dose 1 mg/kg, route intravenous; settings: plasma
[8] = AUC (0 to t) in rat at 1 mg/kg, iv; assay type: ADME, organism-based; parameters: dose 1 mg/kg, route intravenous; settings: plasma
[9] = biological target: Vascular endothelial growth factor receptor 2 (Mus musculus, UniProt P35918); assay: Inhibition of mouse VEGFR2 autophosphorylation in NIH3T3 cell
Chain of Vascular endothelial growth factor receptor 2 (Mus musculus, UniProt P35918) (P35918 whole entry): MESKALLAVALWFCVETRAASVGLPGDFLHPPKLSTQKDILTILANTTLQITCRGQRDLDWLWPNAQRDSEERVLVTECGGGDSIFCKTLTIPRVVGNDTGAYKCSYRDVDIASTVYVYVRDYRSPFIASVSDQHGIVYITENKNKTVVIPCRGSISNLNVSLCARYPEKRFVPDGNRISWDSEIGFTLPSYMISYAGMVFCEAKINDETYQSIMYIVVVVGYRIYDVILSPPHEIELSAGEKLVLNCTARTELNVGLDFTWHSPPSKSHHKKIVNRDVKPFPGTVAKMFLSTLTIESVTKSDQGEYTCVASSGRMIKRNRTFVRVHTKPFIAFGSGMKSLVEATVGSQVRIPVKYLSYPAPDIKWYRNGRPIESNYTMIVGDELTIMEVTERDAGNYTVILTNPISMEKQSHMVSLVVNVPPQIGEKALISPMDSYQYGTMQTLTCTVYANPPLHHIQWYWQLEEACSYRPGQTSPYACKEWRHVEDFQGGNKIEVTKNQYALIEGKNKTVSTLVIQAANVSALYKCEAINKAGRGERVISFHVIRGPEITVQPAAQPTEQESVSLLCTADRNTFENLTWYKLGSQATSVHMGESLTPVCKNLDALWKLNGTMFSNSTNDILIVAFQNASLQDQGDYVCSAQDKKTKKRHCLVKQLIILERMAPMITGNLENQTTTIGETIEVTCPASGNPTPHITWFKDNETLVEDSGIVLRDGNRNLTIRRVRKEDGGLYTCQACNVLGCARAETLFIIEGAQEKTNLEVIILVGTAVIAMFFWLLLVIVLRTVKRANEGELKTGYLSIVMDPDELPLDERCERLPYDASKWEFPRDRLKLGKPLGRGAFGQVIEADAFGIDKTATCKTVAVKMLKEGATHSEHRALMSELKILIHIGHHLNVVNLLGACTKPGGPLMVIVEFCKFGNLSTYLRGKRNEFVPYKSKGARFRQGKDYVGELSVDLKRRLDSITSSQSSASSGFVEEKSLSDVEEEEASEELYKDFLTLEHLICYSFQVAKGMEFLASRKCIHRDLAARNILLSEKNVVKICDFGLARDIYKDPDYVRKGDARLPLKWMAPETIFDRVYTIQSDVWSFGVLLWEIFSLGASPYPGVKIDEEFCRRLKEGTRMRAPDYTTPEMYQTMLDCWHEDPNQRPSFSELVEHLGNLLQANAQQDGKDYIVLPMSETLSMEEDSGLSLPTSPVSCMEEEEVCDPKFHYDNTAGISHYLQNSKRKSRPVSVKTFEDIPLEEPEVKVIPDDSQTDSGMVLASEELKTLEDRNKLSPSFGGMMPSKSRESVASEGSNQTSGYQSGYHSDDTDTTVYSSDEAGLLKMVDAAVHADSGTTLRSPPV

[10] = test system: Aorta; assay: Ex vivo antiangiogenic activity in rat aortic ring explant assessed as inhibition of microvessel growth after 8 days; assay type: functional, tissue-based; settings: 192 h
[11] = Cmax in rat at 5 mg/kg, po; assay type: ADME, organism-based; parameters: dose 5 mg/kg, route oral; settings: in vivo
[12] = Half life in rat at 1 mg/kg, iv; assay type: ADME, organism-based; parameters: dose 1 mg/kg, route intravenous; settings: in vivo
[13] = Aqueous solubility at pH 7.4; assay type: physicochemical; settings: aqueous medium
[14] = Volume of distribution in rat at 1 mg/kg, iv; assay type: ADME, organism-based; parameters: dose 1 mg/kg, route intravenous; settings: in vivo
[15] = test system: Aorta; assay: Toxicity in rat aortic ring; assay type: tissue-based
[16] = Aqueous solubility at pH 2.0; assay type: physicochemical; settings: aqueous medium
[17] = AUC (0 to t) in rat at 5 mg/kg, po; assay type: ADME, organism-based; parameters: dose 5 mg/kg, route oral; settings: plasma
[18] = Clearance in rat at 1 mg/kg, iv; assay type: ADME, organism-based; parameters: dose 1 mg/kg, route intravenous; settings: in vivo
[19] = test system: HUVEC; assay: Inhibition of angiopoietin 1-induced chemotaxis of HUVEC cells; assay type: functional, cell-based; settings: Homo sapiens
[20] = Tmax in rat at 5 mg/kg, po; assay type: ADME, organism-based; parameters: dose 5 mg/kg, route oral; settings: in vivo
[21] = AUC in rat; assay type: ADME, organism-based; settings: plasma
[22] = biological target: T1, Angiopoietin-1 receptor; assay: Inhibition of TIE2 at 1000 nM

T1 sequence (Q02763 whole entry): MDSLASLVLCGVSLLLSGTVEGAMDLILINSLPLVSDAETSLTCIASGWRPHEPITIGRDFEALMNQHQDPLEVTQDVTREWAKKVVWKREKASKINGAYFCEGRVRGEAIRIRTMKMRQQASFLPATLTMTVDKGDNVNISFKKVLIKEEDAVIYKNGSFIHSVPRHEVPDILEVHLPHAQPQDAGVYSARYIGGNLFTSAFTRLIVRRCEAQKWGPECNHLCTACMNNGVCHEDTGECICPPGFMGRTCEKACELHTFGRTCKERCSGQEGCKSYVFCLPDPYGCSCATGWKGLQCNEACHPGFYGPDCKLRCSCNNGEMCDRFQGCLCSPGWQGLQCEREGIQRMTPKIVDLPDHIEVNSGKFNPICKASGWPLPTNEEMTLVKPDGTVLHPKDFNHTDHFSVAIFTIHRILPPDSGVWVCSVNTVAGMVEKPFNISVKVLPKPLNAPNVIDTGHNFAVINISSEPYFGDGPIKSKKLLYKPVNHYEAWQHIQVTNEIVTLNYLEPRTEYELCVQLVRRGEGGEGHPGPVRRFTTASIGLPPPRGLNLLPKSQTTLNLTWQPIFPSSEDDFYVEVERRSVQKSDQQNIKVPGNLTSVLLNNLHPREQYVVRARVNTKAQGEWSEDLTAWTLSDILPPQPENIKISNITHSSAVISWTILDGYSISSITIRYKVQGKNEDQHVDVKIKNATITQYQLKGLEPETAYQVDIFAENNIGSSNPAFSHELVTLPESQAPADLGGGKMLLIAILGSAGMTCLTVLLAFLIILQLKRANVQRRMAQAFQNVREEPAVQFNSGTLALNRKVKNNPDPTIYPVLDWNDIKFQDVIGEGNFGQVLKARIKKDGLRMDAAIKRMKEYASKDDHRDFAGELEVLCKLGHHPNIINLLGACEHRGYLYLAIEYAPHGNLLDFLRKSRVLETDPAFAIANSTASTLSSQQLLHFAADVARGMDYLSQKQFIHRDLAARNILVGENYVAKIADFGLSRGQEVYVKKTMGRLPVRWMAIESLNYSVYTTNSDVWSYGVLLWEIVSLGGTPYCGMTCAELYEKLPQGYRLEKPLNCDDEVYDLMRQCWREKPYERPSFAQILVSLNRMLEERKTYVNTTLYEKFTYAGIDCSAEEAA
Chain of Vascular endothelial growth factor receptor 2 (Homo sapiens, UniProt P35968) (P35968 whole entry): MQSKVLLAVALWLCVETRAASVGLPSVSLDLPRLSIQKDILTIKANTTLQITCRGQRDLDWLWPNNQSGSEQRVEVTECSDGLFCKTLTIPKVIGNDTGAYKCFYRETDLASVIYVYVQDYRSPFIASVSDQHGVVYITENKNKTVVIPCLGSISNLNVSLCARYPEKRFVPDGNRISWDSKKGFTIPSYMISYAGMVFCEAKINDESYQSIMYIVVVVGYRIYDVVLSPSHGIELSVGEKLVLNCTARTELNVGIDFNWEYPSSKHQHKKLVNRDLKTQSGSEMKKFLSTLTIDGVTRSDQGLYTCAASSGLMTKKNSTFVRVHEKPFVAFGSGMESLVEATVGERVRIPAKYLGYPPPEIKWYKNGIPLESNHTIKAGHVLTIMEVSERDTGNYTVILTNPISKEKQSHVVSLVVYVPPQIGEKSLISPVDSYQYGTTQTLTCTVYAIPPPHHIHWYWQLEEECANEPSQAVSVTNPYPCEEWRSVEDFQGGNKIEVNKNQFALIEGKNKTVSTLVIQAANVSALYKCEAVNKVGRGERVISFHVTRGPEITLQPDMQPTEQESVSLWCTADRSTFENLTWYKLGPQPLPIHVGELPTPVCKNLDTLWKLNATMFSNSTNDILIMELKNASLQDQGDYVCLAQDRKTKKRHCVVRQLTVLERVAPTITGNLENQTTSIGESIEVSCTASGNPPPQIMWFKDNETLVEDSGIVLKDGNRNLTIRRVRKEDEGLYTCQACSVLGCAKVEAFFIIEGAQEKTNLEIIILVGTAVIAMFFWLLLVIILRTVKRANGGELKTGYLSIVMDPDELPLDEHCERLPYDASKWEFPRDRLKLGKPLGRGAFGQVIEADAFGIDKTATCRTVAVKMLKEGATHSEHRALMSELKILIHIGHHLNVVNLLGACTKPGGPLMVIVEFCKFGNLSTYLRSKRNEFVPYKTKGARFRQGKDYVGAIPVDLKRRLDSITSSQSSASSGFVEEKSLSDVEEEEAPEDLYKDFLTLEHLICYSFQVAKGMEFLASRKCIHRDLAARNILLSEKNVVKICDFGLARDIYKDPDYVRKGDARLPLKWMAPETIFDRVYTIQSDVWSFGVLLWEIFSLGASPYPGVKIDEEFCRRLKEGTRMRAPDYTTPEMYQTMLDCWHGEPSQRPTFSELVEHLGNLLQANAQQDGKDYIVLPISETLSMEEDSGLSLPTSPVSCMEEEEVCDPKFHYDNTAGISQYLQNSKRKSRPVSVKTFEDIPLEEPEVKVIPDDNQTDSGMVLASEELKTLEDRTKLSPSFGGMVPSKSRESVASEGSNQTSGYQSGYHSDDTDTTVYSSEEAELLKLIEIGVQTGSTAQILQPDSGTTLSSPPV

Row | Compound | IC50 [1] [nM] | IC50 [2] [nM] | further results
1 | CC(C)Cn1c2ccc(C(=O)c3ccoc3)cc2c2c3c(c4c(c21)CCc1nn(C)cc1-4)C(=O)NC3 | 58 | 8 | 
2 | CCCCn1c2ccc(C(C)=O)cc2c2c3c(c4c(c21)CCc1nn(C)cc1-4)C(=O)NC3 | 300 | 26 | inhibition [3]: 50%
3 | CC(C)OCc1ccc2c(c1)c1c3c(c4c(c1n2CCCOC(=O)CN(C)C)Cc1ccccc1-4)C(=O)NC3 [CEP-7055] | 1360 | 16 | 
4 | CCCn1c2ccccc2c2c3c(c4c(c21)CCc1nn(C)cc1-4)C(=O)NC3 | 136 | 16 | 
5 | CC(C)Cn1c2ccc(C(=O)c3ccsc3)cc2c2c3c(c4c(c21)CCc1nn(C)cc1-4)C(=O)NC3 | 63 | 13 | 
6 | CC(C)Cn1c2ccc(C(=O)c3sccc3Cl)cc2c2c3c(c4c(c21)CCc1nn(C)cc1-4)C(=O)NC3 | 13 | 7 | Activity [4]: Non-toxic; bioavailability [5]: 69%; AUC(0-inf) [6]: 5140 ng·h/mL; AUC(0-inf) [7]: 1490 ng·h/mL; AUC(0-t) [8]: 1440 ng·h/mL; IC50 [9]: 10 nM; EC50 [10]: 20 nM; Cmax [11]: 842 ng/mL; half-life [12]: 1.35 h; solubility [13]: < 1 µg/mL; Vd [14]: 1.4 L/kg; Activity [15]: Non-toxic; solubility [16]: < 1 µg/mL; AUC(0-t) [17]: 3330 ng·h/mL; clearance [18]: 12 mL/min/kg; Activity [19]: Dose-dependent effect; Tmax [20]: 3.33 h
7 | Cc1ccsc1C(=O)c1ccc2c(c1)c1c3c(c4c(c1n2CC(C)C)CCc1nn(C)cc1-4)C(=O)NC3 | 5 | 10 | IC50 [9]: < 10 nM; clearance [18]: 72 mL/min/kg; AUC [21]: 261 ng·h/mL
8 | CCn1c2ccc(C(C)=O)cc2c2c3c(c4c(c21)CCc1nn(C)cc1-4)C(=O)NC3 | 1000 | 13 | inhibition [22]: 50%
9 | CC(=O)c1ccc2[nH]c3c4c(c5c(c3c2c1)CNC5=O)-c1cn(C)nc1CC4 | > 1000 | 35 | inhibition [22]: 28%
10 | CC(=O)c1ccc2c(c1)c1c3c(c4c(c1n2CC(C)C)CCc1nn(C)cc1-4)C(=O)NC3 | 83 | 21 | 
11 | Cn1cc2c(n1)CCc1c-2c2c(c3c1[nH]c1ccc(C(=O)c4cccs4)cc13)CNC2=O | 136 | 2 | 
12 | CC(C)Cn1c2ccc(C(=O)c3ccco3)cc2c2c3c(c4c(c21)CCc1nn(C)cc1-4)C(=O)NC3 | 72 | 4 | 
13 | CCCn1c2ccc(C(C)=O)cc2c2c3c(c4c(c21)CCc1nn(C)cc1-4)C(=O)NC3 | 272 | 3 | 
14 | CC(C)Cn1c2ccc(C(=O)c3cccs3)cc2c2c3c(c4c(c21)CCc1nn(C)cc1-4)C(=O)NC3 | 20 | 6 | Activity [4]: Non-toxic; bioavailability [5]: 12%; AUC(0-inf) [6]: 4130 ng·h/mL; AUC(0-inf) [7]: 6650 ng·h/mL; AUC(0-t) [8]: 5680 ng·h/mL; IC50 [9]: 10 nM; EC50 [10]: 20 nM; Cmax [11]: 638 ng/mL; half-life [12]: 2.32 h; solubility [13]: < 1 µg/mL; Vd [14]: 0.52 L/kg; Activity [15]: Non-toxic; solubility [16]: < 1 µg/mL; AUC(0-t) [17]: 2820 ng·h/mL; clearance [18]: 2.36 mL/min/kg; Activity [19]: Dose-dependent effect; Tmax [20]: 4 h
15 | CCCn1c2ccc(C(=O)c3cccs3)cc2c2c3c(c4c(c21)CCc1nn(C)cc1-4)C(=O)NC3 | 26 | 5 | 
16 | CC(C)Cn1c2ccccc2c2c3c(c4c(c21)CCc1nn(C)cc1-4)C(=O)NC3 | 372 | 17 | 
17 | CCn1c2ccc(C(=O)c3cccs3)cc2c2c3c(c4c(c21)CCc1nn(C)cc1-4)C(=O)NC3 | 43 | 1 | 
18 | CC(C)Cn1c2ccc(C(=O)c3sccc3Br)cc2c2c3c(c4c(c21)CCc1nn(C)cc1-4)C(=O)NC3 | 15 | 25 | IC50 [9]: < 10 nM; clearance [18]: 138 mL/min/kg; AUC [21]: 123 ng·h/mL
19 | CC(=O)c1ccc2c(c1)c1c3c(c4c(c1n2C(C)C)CCc1nn(C)cc1-4)C(=O)NC3 | 726 | 75 | 
20 | CC(C)n1c2ccc(C(=O)c3cccs3)cc2c2c3c(c4c(c21)CCc1nn(C)cc1-4)C(=O)NC3 | 24 | 15 | 
21 | Cn1cc2c(n1)CCc1c-2c2c(c3c1[nH]c1ccccc13)CNC2=O | 1360 | 16 | 
22 | Cc1csc(C(=O)c2ccc3c(c2)c2c4c(c5c(c2n3CC(C)C)CCc2nn(C)cc2-5)C(=O)NC4)c1 | 43 | 11 | IC50 [9]: > 50 nM
23 | CCn1c2ccccc2c2c3c(c4c(c21)CCc1nn(C)cc1-4)C(=O)NC3 | 1100 | 15 | 
24 | CC(=O)c1ccc2c(c1)c1c3c(c4c(c1n2C)CCc1nn(C)cc1-4)C(=O)NC3 | > 10000 | 10 | 
